Source: BigSolDB 2.1

C=CC(=O)N1CCC[C@@H](n2nc(-c3ccc(Oc4ccccc4)cc3)c3c(N)ncnc32)C1
solubility (mole fraction) (in 2-butanone, 278.15 K): 0.00549 | solubility (mole fraction) (in 2-butanone, 283.15 K): 0.00628 | solubility (mole fraction) (in 2-butanone, 288.15 K): 0.00726 | solubility (mole fraction) (in 2-butanone, 293.15 K): 0.00855 | solubility (mole fraction) (in 2-butanone, 298.15 K): 0.00988 | solubility (mole fraction) (in 2-butanone, 303.15 K): 0.0114 | solubility (mole fraction) (in 2-butanone, 308.15 K): 0.0132 | solubility (mole fraction) (in 2-butanone, 313.15 K): 0.0155 | solubility (mole fraction) (in 2-butanone, 318.15 K): 0.0181 | solubility (mole fraction) (in 2-butanone, 323.15 K): 0.0211 | solubility (mole fraction) (in MTBE, 278.15 K): 0.000225 | solubility (mole fraction) (in MTBE, 283.15 K): 0.000244 | solubility (mole fraction) (in MTBE, 288.15 K): 0.000277 | solubility (mole fraction) (in MTBE, 293.15 K): 0.000305 | solubility (mole fraction) (in MTBE, 298.15 K): 0.000331 | solubility (mole fraction) (in MTBE, 303.15 K): 0.00037 | solubility (mole fraction) (in MTBE, 308.15 K): 0.000404 | solubility (mole fraction) (in MTBE, 313.15 K): 0.000454 | solubility (mole fraction) (in MTBE, 318.15 K): 0.000497 | solubility (mole fraction) (in MTBE, 323.15 K): 0.00056 | solubility (mole fraction) (in acetone, 278.15 K): 0.00362 | solubility (mole fraction) (in acetone, 283.15 K): 0.00417 | solubility (mole fraction) (in acetone, 288.15 K): 0.00487 | solubility (mole fraction) (in acetone, 293.15 K): 0.00573 | solubility (mole fraction) (in acetone, 298.15 K): 0.00673 | solubility (mole fraction) (in acetone, 303.15 K): 0.00794 | solubility (mole fraction) (in acetone, 308.15 K): 0.00921 | solubility (mole fraction) (in acetone, 313.15 K): 0.0108 | solubility (mole fraction) (in acetone, 318.15 K): 0.0125 | solubility (mole fraction) (in acetone, 323.15 K): 0.0144 | solubility (mole fraction) (in acetonitrile, 278.15 K): 0.000672 | solubility (mole fraction) (in acetonitrile, 283.15 K): 0.000819 | solubility (mole fraction) (in acetonitrile, 288.15 K): 0.000962 | solubility (mole fraction) (in acetonitrile, 293.15 K): 0.00122 | solubility (mole fraction) (in acetonitrile, 298.15 K): 0.00143 | solubility (mole fraction) (in acetonitrile, 303.15 K): 0.00174 | solubility (mole fraction) (in acetonitrile, 308.15 K): 0.0021 | solubility (mole fraction) (in acetonitrile, 313.15 K): 0.00256 | solubility (mole fraction) (in acetonitrile, 318.15 K): 0.00314 | solubility (mole fraction) (in acetonitrile, 323.15 K): 0.00367 | solubility (mole fraction) (in ethyl acetate, 278.15 K): 0.00312 | solubility (mole fraction) (in ethyl acetate, 283.15 K): 0.00357 | solubility (mole fraction) (in ethyl acetate, 288.15 K): 0.00403 | solubility (mole fraction) (in ethyl acetate, 293.15 K): 0.00475 | solubility (mole fraction) (in ethyl acetate, 298.15 K): 0.00548 | solubility (mole fraction) (in ethyl acetate, 303.15 K): 0.00618 | solubility (mole fraction) (in ethyl acetate, 308.15 K): 0.00722 | solubility (mole fraction) (in ethyl acetate, 313.15 K): 0.0083 | solubility (mole fraction) (in ethyl acetate, 318.15 K): 0.00952 | solubility (mole fraction) (in ethyl acetate, 323.15 K): 0.0107 | solubility (mole fraction) (in isopropanol, 278.15 K): 0.000409 | solubility (mole fraction) (in isopropanol, 283.15 K): 0.000547 | solubility (mole fraction) (in isopropanol, 288.15 K): 0.000734 | solubility (mole fraction) (in isopropanol, 293.15 K): 0.000947 | solubility (mole fraction) (in isopropanol, 298.15 K): 0.00123 | solubility (mole fraction) (in isopropanol, 303.15 K): 0.00165 | solubility (mole fraction) (in isopropanol, 308.15 K): 0.00217 | solubility (mole fraction) (in isopropanol, 313.15 K): 0.00278 | solubility (mole fraction) (in isopropanol, 318.15 K): 0.00363 | solubility (mole fraction) (in isopropanol, 323.15 K): 0.00455 | solubility (mole fraction) (in n-butanol, 278.15 K): 0.00127 | solubility (mole fraction) (in n-butanol, 283.15 K): 0.00163 | solubility (mole fraction) (in n-butanol, 288.15 K): 0.00206 | solubility (mole fraction) (in n-butanol, 293.15 K): 0.00261 | solubility (mole fraction) (in n-butanol, 298.15 K): 0.00331 | solubility (mole fraction) (in n-butanol, 303.15 K): 0.00423 | solubility (mole fraction) (in n-butanol, 308.15 K): 0.0054 | solubility (mole fraction) (in n-butanol, 313.15 K): 0.00694 | solubility (mole fraction) (in n-butanol, 318.15 K): 0.00894 | solubility (mole fraction) (in n-butanol, 323.15 K): 0.0115
